Consider one compound from US11213517B2, “Pharmaceutical combination comprising a T-type calcium channel blocker” (IDORSIA PHARMACEUTICALS LTD, priority 2016, dated 2022).

Data set [1] can be described thus: Plasma and brain concentrations of drugs at the end of the audiogenic seizure experiment (LC-MS). It is filed as in vivo, mouse. The settings on record: for concentration at 1 h: DBA/2J, mouse, oral; for concentration at 1 h / Brain concentration total: analyte VPA, oral gavage, mean ± SEM. The method, then:
Briefly, blood was sampled from the vena cava caudalis with a syringe pre-filled with EDTA (ethylenediamine tetraacetic acid) as anticoagulant and centrifuged to yield plasma (for 10 minutes, at 4° C. and 5000 rpm (rounds per minute)). Brain was sampled and homogenized into one volume of cold phosphate buffer (pH 7.4). Following extraction with methanol, concentrations of the compound in plasma and brain were determined using liquid chromatography coupled to mass spectrometry.
(§1) Different combination efficacy experiments are performed. […] Each experiment consists of four treatment groups: • 1. Vehicle (10% Polyethylene glycol400 (PEG400)/90% methylcellulose (0.5% in water; MC0.5%)), 3 h before exposure to the auditory stimulus+vehicle, 1 h before exposure to the auditory stimulus; • 2. COMPOUND 1 (in 10% PEG400/90% MC0.5%), 3 h before exposure to the auditory stimulus+vehicle, 1 h before exposure to the auditory stimulus; • 3. Vehicle, 3 h before exposure to the auditory stimulus+AED (in 10% PEG400/90% MC0.5%), 1 h before exposure to the auditory stimulus; and • 4. COMPOUND 1 (in 10% PEG400/90% MC0.5%), 3 h before exposure to the auditory stimulus+AED (in 10% PEG400/90% MC0.5%), 1 h before exposure to the auditory stimulus.

For data set [2], the system named is audiogenic seizure-sensitive juvenile DBA/2J mice. As to the kind of experiment: Audiogenic seizure-sensitive juvenile DBA/2J mouse model of generalized tonic-clonic seizures. The format is in vivo. Also on record: key: 0 none, 1 wild running, 2 clonus, 3 hind-limb tonic extension. Conditions: oral gavage, mean ± SEM.
Description: Audiogenic Seizure-Sensitive Juvenile DBA/2J Mouse Model of Generalized Tonic-Clonic Seizures
The inbred DBA/2J mouse strain carries an increased general susceptibility for acute generalized convulsive seizures induced by either pharmacological, electrical or, as juvenile, auditory stimuli. At the age of 17 to 28 days (juvenile), they show tonic-clonic convulsions when exposed to a loud tone.
Male juvenile DBA/2J mice (22-24 days old, body weight between 6.6 and 14.5 grams) were used. Each mouse was placed individually in the exposure chamber, an hemispheric acrylic glass dome (diameter: 50 cm) within a sound-attenuated box. After 60 seconds of habituation, an auditory stimulus of mixed frequency tone (15-20 kHz at 110 dB) was played from a speaker placed on the top center of the dome.
The sound-attenuated box was equipped with lights and a camera system in order to observe and record the behavioral seizure response classified as following: • stage 0, no response • stage 1, wild running • stage 2, clonus • stage 3, tonic extension of the hind limbs.
as §1

[3] abbreviates: vehicle 3 h + VPA 100 mg/kg 1 h before stimulus.

“And” between values parts separate entries of the source, which are not always exact repeats. Identical values can stand only once. Like-named read-outs stand apart in the source and are kept apart here.

Turning to `CCCC(CCC)C(=O)O` [VPA, 2-propylpentanoic acid], the “plasma and brain concentrations after administration of the compounds alone or in combination” value in data set [1] (COMPOUND 1 and valproic acid, juvenile DBA/2J mice) is “similar”. Further, the concentration at 1 h is 1260 ± 399 ng/g in data set [1] (brain, 30 mg/kg, vehicle 3 h + VPA 30 mg/kg 1 h before stimulus, read-out: Brain concentration total); 10100 ± 2040 ng/g in data set [1] (brain, 100 mg/kg, vehicle 3 h + VPA 100 mg/kg 1 h before stimulus, read-out: Brain concentration total); 44200 ± 4090 ng/g in data set [1] (brain, 200 mg/kg, vehicle 3 h + VPA 200 mg/kg 1 h before stimulus, read-out: Brain concentration total); 14600 ± 2910 ng/g in data set [1] (brain, COMPOUND 1 10 mg/kg 3 h + VPA 100 mg/kg 1 h before stimulus, read-out: Brain concentration total); 34700 ± 4440 ng/g in data set [1] (brain, COMPOUND 1 10 mg/kg 3 h + VPA 200 mg/kg 1 h before stimulus, read-out: Brain concentration total); 1010 ± 117 ng/g in data set [1] (brain, COMPOUND 1 30 mg/kg 3 h + VPA 30 mg/kg 1 h before stimulus, read-out: Brain concentration total). Further, the concentration at 1 h in data set [1] (brain, COMPOUND 1 30 mg/kg 3 h + VPA 100 mg/kg 1 h before stimulus, read-out: Brain concentration total) was determined as 5950 ± 946 ng/g; in data set [1] (brain, COMPOUND 1 30 mg/kg 3 h + VPA 200 mg/kg 1 h before stimulus, read-out: Brain concentration total), 27000 ± 6540 ng/g; in data set [1] (plasma, 30 mg/kg, vehicle 3 h + VPA 30 mg/kg 1 h before stimulus, read-out: Plasma concentration total), 23 ± 3.61 µg/mL; in data set [1] (plasma, 100 mg/kg, vehicle 3 h + VPA 100 mg/kg 1 h before stimulus, read-out: Plasma concentration total) it was 53.7 ± 4.04 µg/mL; in data set [1] (plasma, 200 mg/kg, vehicle 3 h + VPA 200 mg/kg 1 h before stimulus, read-out: Plasma concentration total), 133 ± 10.7 µg/mL; in data set [1] (plasma, COMPOUND 1 10 mg/kg 3 h + VPA 100 mg/kg 1 h before stimulus, read-out: Plasma concentration total), 57.3 ± 3.76 µg/mL. Also, the concentration at 1 h in data set [1] (plasma, COMPOUND 1 10 mg/kg 3 h + VPA 200 mg/kg 1 h before stimulus, read-out: Plasma concentration total) came to 123 ± 11.7 µg/mL; in data set [1] (plasma, COMPOUND 1 30 mg/kg 3 h + VPA 30 mg/kg 1 h before stimulus, read-out: Plasma concentration total), 19.9 ± 1.65 µg/mL; in data set [1] (plasma, COMPOUND 1 30 mg/kg 3 h + VPA 100 mg/kg 1 h before stimulus, read-out: Plasma concentration total), 63.4 ± 3.21 µg/mL; in data set [1] (plasma, COMPOUND 1 30 mg/kg 3 h + VPA 200 mg/kg 1 h before stimulus, read-out: Plasma concentration total) it was 110 ± 11.4 µg/mL. The figures for the Brain concentration total in data set [1] (setting [3]) and in data set [1] (vehicle 3 h + VPA 200 mg/kg 1 h before stimulus) were 9278 ± 2535 ng/g and 24746 ± 3564 ng/g, respectively. Besides, the “Seizure stage (maximal seizure stage observed during exposure to auditory stimulus)” value in data set [2] (vehicle 3 h + VPA 30 mg/kg 1 h before stimulus) is 2.9 ± 0.1; in data set [2] (setting [3]), 2.7 ± 0.2 and 2.8 ± 0.2; in data set [2] (vehicle 3 h + VPA 100 mg/kg 1 h before stimulus, listed as valproic acid), 3.
